The values that follow come from ChEMBL document CHEMBL4806968, “Hipk inhibitors and methods of use thereof” (2020).

Experiment [1] has as its target Vascular endothelial growth factor receptor 2 (Homo sapiens) (UniProt P35968). Nature of the experiment: Inhibition of KDR (unknown origin) at 0.5 uM relative to control.
Experiment [2] has as its target MAP kinase-interacting serine/threonine-protein kinase 2 (Homo sapiens) (UniProt Q9HBH9). The experiment in a line: Inhibition of MNK2 (unknown origin) at 0.5 uM relative to control.
Experiment [3] addresses MAP kinase-interacting serine/threonine-protein kinase 1 (Homo sapiens) (UniProt Q9BUB5). Nature of the experiment: Inhibition of MNK1 (unknown origin) at 0.5 uM relative to control.
Experiment [4] concerns the target Serine/threonine-protein kinase B-raf (Homo sapiens) (UniProt P15056). Nature of the experiment: Inhibition of BRAF (unknown origin) at 0.5 uM relative to control.
For experiment [5], the target named is SRSF protein kinase 3 (Homo sapiens) (UniProt Q9UPE1). The experiment in a line: Inhibition of MSSK1 (unknown origin) at 0.5 uM relative to control.
The target in experiment [6] is Platelet-derived growth factor receptor alpha (Homo sapiens) (UniProt P16234). The experiment in a line: Inhibition of PDGFR-alpha (unknown origin) at 0.5 uM relative to control.
Experiment [7] concerns the target Eukaryotic translation initiation factor 2-alpha kinase 3 (Homo sapiens) (UniProt Q9NZJ5). The experiment in a line: Inhibition of PERK (unknown origin) at 0.5 uM relative to control.
In experiment [8] the target is Serine/threonine-protein kinase MARK1 (Homo sapiens) (UniProt Q9P0L2). The experiment in a line: Inhibition of MARK1 (unknown origin) at 0.5 uM relative to control.
Experiment [9] deals with Inhibitor of nuclear factor kappa-B kinase subunit epsilon (Homo sapiens) (UniProt Q14164). Nature of the experiment: Inhibition of IKK-epsilon (unknown origin) at 0.5 uM relative to control.
The target in experiment [10] is Mitogen-activated protein kinase 14 (Homo sapiens) (UniProt Q16539). Nature of the experiment: Inhibition of p38alpha (unknown origin) at 0.5 uM relative to control.
Mitogen-activated protein kinase 14 (Homo sapiens), sequence (Q16539 whole entry): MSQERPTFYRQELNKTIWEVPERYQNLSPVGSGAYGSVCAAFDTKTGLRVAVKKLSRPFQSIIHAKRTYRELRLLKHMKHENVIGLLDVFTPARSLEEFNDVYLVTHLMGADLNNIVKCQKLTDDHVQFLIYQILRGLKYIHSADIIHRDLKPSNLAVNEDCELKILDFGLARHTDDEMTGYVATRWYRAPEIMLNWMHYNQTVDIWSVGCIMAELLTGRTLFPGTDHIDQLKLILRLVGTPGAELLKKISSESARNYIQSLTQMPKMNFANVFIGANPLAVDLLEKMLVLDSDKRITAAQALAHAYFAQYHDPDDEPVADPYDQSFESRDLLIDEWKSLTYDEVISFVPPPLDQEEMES
Experiment [11] has as its target Tyrosine-protein kinase ABL2 (Homo sapiens) (UniProt P42684). Nature of the experiment: Inhibition of ARG (unknown origin) at 0.5 uM relative to control.
For experiment [12], the target named is Mitogen-activated protein kinase 11 (Homo sapiens) (UniProt Q15759). Nature of the experiment: Inhibition of p38beta (unknown origin) at 0.5 uM relative to control.
Mitogen-activated protein kinase 11 (Homo sapiens), sequence (Q15759 whole entry): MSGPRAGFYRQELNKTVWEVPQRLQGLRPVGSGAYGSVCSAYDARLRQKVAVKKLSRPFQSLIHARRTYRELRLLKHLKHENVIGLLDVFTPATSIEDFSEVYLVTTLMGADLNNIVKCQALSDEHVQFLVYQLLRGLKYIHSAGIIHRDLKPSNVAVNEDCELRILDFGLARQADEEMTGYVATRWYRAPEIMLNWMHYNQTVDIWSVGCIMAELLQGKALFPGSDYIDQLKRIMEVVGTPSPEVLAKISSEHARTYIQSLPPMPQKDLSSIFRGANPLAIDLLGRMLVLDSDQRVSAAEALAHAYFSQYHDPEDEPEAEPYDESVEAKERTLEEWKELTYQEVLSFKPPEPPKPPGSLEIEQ
The target of experiment [13] is T1, Serine/threonine-protein kinase TAO3 (Homo sapiens) (UniProt Q9H2K8).
T1 sequence (whole entry): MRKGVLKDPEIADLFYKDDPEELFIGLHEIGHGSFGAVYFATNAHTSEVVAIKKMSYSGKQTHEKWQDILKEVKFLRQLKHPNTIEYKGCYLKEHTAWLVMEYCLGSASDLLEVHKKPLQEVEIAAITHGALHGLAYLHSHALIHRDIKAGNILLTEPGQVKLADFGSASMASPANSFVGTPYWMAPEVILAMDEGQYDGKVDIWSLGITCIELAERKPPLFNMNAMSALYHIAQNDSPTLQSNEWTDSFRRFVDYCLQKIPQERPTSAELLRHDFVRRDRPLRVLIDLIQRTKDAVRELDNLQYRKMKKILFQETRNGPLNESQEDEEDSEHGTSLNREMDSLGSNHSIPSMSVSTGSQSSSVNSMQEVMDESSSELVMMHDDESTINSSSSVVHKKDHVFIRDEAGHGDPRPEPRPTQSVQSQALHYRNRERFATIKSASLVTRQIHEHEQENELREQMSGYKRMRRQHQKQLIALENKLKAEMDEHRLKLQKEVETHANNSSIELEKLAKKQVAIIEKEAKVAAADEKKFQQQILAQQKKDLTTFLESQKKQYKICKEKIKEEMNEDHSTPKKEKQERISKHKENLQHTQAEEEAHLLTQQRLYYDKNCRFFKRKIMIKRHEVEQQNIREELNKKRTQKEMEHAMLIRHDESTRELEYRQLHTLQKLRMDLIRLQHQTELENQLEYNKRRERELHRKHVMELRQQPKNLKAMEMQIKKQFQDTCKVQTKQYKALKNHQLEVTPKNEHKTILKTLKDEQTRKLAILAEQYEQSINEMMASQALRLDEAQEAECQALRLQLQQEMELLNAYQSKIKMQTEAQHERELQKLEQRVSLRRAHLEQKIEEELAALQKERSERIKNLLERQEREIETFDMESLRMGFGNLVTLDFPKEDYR
The experiment in a line: Inhibition of TAOK3 (unknown origin) at 0.5 uM relative to control.

For experiment [14], the target named is Proto-oncogene tyrosine-protein kinase Src (Homo sapiens) (UniProt P12931). Nature of the experiment: Inhibition of SRC (unknown origin) at 0.5 uM relative to control.
The target in experiment [15] is Fibroblast growth factor receptor 2 (Homo sapiens) (UniProt P21802). The experiment in a line: Inhibition of FGFR2 (unknown origin) at 0.5 uM relative to control.
Experiment [16] deals with Ephrin type-A receptor 1 (Homo sapiens) (UniProt P21709). The experiment in a line: Inhibition of EPHA1 (unknown origin) at 0.5 uM relative to control.
Ephrin type-A receptor 1 (Homo sapiens), sequence (P21709 whole entry): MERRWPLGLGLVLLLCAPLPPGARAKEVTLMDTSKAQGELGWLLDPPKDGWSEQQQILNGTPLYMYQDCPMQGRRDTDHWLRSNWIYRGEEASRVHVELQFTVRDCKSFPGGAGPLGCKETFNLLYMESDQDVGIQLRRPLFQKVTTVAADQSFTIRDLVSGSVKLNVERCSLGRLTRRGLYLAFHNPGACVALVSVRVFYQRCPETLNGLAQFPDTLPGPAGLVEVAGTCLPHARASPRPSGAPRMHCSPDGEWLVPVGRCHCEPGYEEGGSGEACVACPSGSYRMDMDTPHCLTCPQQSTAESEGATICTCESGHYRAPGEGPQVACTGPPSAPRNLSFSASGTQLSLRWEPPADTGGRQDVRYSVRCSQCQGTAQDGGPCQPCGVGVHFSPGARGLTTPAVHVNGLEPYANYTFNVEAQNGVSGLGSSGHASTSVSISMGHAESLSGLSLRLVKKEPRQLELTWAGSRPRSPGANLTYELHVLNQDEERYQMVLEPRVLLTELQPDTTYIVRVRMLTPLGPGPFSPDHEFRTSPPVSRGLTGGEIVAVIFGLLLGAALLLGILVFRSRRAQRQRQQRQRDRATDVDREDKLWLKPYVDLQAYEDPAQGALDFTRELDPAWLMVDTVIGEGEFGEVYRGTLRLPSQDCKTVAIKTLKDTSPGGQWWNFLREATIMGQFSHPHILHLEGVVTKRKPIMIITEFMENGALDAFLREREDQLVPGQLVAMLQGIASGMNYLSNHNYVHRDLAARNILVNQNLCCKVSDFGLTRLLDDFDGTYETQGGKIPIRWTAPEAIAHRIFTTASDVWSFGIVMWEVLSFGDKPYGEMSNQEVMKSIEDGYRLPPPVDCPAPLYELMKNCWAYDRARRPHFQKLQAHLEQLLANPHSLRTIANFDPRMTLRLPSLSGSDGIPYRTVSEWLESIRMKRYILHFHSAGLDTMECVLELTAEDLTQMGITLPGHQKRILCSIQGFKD
Experiment [17] deals with Mitogen-activated protein kinase kinase kinase 9 (Homo sapiens) (UniProt P80192). The experiment in a line: Inhibition of MLK1 (unknown origin) at 0.5 uM relative to control.
Experiment [18] has as its target Non-receptor tyrosine-protein kinase TNK1 (Homo sapiens) (UniProt Q13470). The experiment in a line: Inhibition of TNK1 (unknown origin) at 0.5 uM relative to control.
Experiment [19] concerns the target Mitogen-activated protein kinase kinase kinase 10 (Homo sapiens) (UniProt Q02779). Nature of the experiment: Inhibition of MLK2 (unknown origin) at 0.5 uM relative to control.
Experiment [20] has as its target Tyrosine-protein kinase JAK1 (Homo sapiens) (UniProt P23458). The experiment in a line: Inhibition of JAK1 (unknown origin) at 0.5 uM relative to control.
In experiment [21] the target is Serine/threonine-protein kinase PLK2 (Homo sapiens) (UniProt Q9NYY3). The experiment in a line: Inhibition of PLK2 (unknown origin) at 0.5 uM relative to control.
The target of experiment [22] is Dual specificity mitogen-activated protein kinase kinase 4 (Homo sapiens) (UniProt P45985). Nature of the experiment: Inhibition of MAP2K4 (unknown origin) at 0.5 uM relative to control.
Dual specificity mitogen-activated protein kinase kinase 4 (Homo sapiens), sequence (P45985 whole entry): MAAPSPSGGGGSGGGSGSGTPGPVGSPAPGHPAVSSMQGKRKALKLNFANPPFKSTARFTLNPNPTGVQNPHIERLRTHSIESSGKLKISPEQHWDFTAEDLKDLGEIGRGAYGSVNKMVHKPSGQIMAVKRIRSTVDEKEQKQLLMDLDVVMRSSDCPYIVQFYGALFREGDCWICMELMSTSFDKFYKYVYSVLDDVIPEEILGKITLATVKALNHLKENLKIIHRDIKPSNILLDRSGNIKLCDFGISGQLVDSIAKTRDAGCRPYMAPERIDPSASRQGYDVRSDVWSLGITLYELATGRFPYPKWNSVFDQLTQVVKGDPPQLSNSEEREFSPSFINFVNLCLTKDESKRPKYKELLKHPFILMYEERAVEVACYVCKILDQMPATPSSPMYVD
Experiment [23] deals with Tyrosine-protein kinase JAK2 (Homo sapiens) (UniProt O60674). The experiment in a line: Inhibition of JAK2 (unknown origin) at 0.5 uM relative to control.
Experiment [24] deals with Serine/threonine-protein kinase PLK4 (Homo sapiens) (UniProt O00444). Nature of the experiment: Inhibition of PLK4 (unknown origin) at 0.5 uM relative to control.
Experiment [25] has as its target Mitogen-activated protein kinase kinase kinase kinase 5 (Homo sapiens) (UniProt Q9Y4K4). The experiment in a line: Inhibition of MAP4K5 (unknown origin) at 0.5 uM relative to control.
Experiment [26] concerns the target Vascular endothelial growth factor receptor 3 (Homo sapiens) (UniProt P35916). The experiment in a line: Inhibition of FLT4 (unknown origin) at 0.5 uM relative to control.
The target of experiment [27] is Ephrin type-B receptor 3 (Homo sapiens) (UniProt P54753). Nature of the experiment: Inhibition of EPHB3 (unknown origin) at 0.5 uM relative to control.
For experiment [28], the target named is Tyrosine-protein kinase Lyn (Homo sapiens) (UniProt P07948). The experiment in a line: Inhibition of LYNB (unknown origin) at 0.5 uM relative to control.
The species entered for experiment [29] is Homo sapiens. Nature of the experiment: Inhibition of LYNA (unknown origin) at 0.5 uM relative to control.

By inhibition is commonly meant the share of the control response that was lost under treatment. Higher therefore signals a response far below the control.

Vascular endothelial growth factor receptor 2 (Homo sapiens), sequence (P35968 whole entry): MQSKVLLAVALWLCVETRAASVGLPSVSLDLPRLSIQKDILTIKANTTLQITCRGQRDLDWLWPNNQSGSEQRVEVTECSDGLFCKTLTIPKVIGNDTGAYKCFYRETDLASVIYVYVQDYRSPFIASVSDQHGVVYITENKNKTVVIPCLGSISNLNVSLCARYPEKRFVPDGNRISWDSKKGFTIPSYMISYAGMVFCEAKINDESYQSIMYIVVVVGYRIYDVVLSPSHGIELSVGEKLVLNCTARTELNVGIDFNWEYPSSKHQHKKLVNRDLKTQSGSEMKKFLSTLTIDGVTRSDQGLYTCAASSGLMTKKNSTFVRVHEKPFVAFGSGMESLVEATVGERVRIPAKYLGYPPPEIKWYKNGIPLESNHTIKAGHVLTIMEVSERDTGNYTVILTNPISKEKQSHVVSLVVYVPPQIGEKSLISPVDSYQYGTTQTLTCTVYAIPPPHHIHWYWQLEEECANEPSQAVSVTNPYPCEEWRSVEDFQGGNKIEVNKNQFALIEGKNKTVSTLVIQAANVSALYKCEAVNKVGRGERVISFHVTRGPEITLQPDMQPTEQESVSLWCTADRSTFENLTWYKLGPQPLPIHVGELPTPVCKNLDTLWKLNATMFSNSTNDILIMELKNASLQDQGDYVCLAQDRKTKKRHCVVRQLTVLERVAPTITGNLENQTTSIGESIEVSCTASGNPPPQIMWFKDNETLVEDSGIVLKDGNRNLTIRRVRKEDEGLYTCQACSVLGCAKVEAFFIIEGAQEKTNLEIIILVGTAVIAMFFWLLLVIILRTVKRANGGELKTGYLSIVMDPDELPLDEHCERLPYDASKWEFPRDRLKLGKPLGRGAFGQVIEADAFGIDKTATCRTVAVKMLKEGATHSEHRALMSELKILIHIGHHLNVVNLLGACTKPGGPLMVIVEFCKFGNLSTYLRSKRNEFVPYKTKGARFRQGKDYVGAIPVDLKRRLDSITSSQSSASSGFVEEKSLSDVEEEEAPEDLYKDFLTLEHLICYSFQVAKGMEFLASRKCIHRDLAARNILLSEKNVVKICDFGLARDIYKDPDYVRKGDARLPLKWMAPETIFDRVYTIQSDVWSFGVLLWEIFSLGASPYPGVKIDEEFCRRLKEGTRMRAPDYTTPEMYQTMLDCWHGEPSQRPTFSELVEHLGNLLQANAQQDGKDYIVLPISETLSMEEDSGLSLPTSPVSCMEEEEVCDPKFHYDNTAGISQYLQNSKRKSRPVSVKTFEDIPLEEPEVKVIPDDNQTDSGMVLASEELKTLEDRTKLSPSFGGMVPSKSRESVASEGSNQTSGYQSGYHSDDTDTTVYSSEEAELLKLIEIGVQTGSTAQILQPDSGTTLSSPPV
Serine/threonine-protein kinase B-raf (Homo sapiens), sequence (P15056 whole entry): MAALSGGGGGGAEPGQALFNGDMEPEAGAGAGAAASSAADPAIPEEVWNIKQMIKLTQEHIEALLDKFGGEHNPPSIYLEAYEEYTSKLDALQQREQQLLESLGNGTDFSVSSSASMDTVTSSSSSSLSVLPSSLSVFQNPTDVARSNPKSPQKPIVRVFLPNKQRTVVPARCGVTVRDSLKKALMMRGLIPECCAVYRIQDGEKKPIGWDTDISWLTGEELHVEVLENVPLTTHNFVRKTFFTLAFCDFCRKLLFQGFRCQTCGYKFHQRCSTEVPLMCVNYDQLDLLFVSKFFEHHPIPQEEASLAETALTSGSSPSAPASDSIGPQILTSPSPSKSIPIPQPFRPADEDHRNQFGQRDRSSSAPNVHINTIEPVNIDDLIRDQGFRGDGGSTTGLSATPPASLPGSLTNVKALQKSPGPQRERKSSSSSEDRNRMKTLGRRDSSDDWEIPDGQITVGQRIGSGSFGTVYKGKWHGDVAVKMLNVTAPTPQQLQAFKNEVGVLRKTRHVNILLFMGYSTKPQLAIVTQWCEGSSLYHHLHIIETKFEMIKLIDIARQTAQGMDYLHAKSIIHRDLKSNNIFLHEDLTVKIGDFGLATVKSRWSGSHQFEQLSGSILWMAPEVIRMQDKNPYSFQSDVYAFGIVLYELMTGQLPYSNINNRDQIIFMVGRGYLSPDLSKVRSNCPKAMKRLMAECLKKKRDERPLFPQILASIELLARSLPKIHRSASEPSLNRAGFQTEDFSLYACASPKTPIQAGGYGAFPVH
Mitogen-activated protein kinase kinase kinase kinase 5 (Homo sapiens), sequence (Q9Y4K4 whole entry, looked up): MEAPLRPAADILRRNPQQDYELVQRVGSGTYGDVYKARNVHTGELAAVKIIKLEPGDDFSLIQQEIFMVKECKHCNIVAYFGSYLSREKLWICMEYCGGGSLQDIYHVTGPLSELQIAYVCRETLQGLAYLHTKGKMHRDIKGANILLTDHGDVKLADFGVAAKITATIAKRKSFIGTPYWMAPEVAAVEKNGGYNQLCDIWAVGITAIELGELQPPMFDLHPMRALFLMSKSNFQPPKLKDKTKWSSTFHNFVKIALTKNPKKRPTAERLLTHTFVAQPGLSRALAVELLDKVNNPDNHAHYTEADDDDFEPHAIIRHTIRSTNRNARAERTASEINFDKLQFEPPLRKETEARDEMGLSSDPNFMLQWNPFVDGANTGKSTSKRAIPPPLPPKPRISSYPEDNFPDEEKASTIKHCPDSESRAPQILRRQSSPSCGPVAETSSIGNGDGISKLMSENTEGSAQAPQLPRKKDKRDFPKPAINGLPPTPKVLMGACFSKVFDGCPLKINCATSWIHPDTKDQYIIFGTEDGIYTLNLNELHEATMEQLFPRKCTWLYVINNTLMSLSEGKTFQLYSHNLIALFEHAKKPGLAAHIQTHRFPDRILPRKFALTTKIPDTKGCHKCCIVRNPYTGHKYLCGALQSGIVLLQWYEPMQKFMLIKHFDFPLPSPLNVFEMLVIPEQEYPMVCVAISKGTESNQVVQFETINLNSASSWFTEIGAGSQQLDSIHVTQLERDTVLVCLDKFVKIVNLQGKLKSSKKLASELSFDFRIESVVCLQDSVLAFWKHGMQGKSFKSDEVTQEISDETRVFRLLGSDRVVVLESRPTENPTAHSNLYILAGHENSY

As to `CNC(=O)c1cc(Oc2ccc(NC(=O)c3n[nH]nc3-c3ccc(F)cc3)cc2)ccn1`, the inhibition is 25% in experiment [1]; 32% in experiment [2]; 54% in [3]; 28% in [4]; 25% in experiment [5].

Consider `CNC(=O)c1cc(Oc2ccc(NC(=O)c3nc(SC)n(CCN(C)C)c3-c3ccc(F)cc3)cc2)ccn1`, for which the inhibition in [6] turned out to be 44%; in experiment [7], 64%; in experiment [8], 44%; in [9], 34%.

As to `CNC(=O)c1cc(Oc2ccc(NC(=O)c3nc(SC)oc3-c3ccc(F)cc3)cc2)ccn1`, the inhibition was 65% in [10], 40% in experiment [11], 40% in [12] and 39% in experiment [13].

As for `CNC(=O)c1cc(Oc2ccc(NC(=O)c3nc(SC)oc3-c3ccc(F)cc3)cc2F)ccn1`, the inhibition in experiment [10] was 63%; in experiment [13] it was 40%; in [14] it was 40%.

As to `CNC(=O)c1cc(Oc2ccc(NC(=O)c3nc(S(C)(=O)=O)sc3-c3ccc(F)cc3)cc2)ccn1`, the results for the inhibition in experiment [1], in [10] and in experiment [15] were 27%, 15% and 11%, respectively.

Turning to `CSc1nc(C(=O)Nc2ccc(Oc3cc4cnn(C)c4cc3Br)cc2)c(-c2ccc(F)cc2)o1`, the inhibition turned out to be 25% in [10]; 21% in experiment [12]; 19% in experiment [4]; 14% in [5]; 37% in experiment [16]; 28% in experiment [17]. Also, the inhibition in experiment [18] was 23%; in experiment [19], 21%; in experiment [20], 21%; in experiment [21] it was 19%; in experiment [22], 16%; in [23] it was 14%. In experiment [24], this compound displayed an inhibition of 14%.

Compound `CNC(=O)c1cc(Oc2ccc(NC(=O)c3nc(NC)sc3-c3ccc(F)cc3)cc2)ccn1` yielded an inhibition in experiment [13] of 55%.

With `CNC(=O)c1cc(Oc2ccc(NC(=O)c3nc(C(F)(F)F)sc3-c3ccc(F)cc3)cc2)ccn1`, the inhibition in experiment [1] was found to be 53%; in [25] it was 55%; in experiment [11], 32%; in experiment [16], 37%; in experiment [26], 25%; in experiment [27], 23%.

Turning to `CNC(=O)c1cc(Oc2ccc(NC(=O)c3nc(SC)[nH]c3-c3ccc(F)cc3)cc2)ccn1`, the inhibition in [1] was 95%; in experiment [25] it was 94%; in [28], 93%; in experiment [2], 90%; in [29] it was 84%.
